Source: US20240108617A1, “AN INHALABLE DRY POWDER COMPOSITION FOR PULMONARY DISEASES” (GLENMARK SPECIALTY S.A., priority 2019, published 2024)
Blank lines part the entries; values can stand above or below the molecule they belong to.

What was measured:
IL-17 [1] = experiment: Ex-vivo IL-17 inhibition from bronchoalveolar lavage (BAL) cells from COPD patients; format: cell-based, human; conditions: for IC50: stimulated BAL cells from COPD patients, read-out: IC50, IL-17 release
Description: The test compound was prepared by 10 mM stock of Compound (I) was prepared in 100% DMSO. The saline was prepared by 0.85 gm of NaCl weighted and dissolved in 100 mL distilled water and adjusted the pH 7.0 to pH 7.4. It was then filter sterilized.
Flexible fiber optic bronchoscopy was performed after valid consent and lignocaine nebulization. Patient was given 2 mg of IV midazolam and monitored under pulse oximetry and cardiac monitor. BAL fluid was collected with repeated aspirations of saline preferably from middle lobe.
BALF was passed through cell strainer to remove debris and mucus. BAL cells were isolated from BALf by centrifugation at 800 rpm for 10 min.
BAL cells were seeded at a density of 1×10^5 cells-2×10^5 cells/well in a 96 well plate coated with Anti-human CD3 antibody (10 μg/mL) and anti-human CD2 antibody (2 μg/mL). The plate was shaken gently and cells incubated for 5-10 minutes in an incubator with 37° C. and 5% CO2 to acclimatize. • 1. Cells were pre-incubated for 60 minutes at 37° C. with serial dilutions of Compound (I). This was followed by the addition of Anti-human CD28 antibody (2 μg/mL). • 2. Cells were incubated for 48-72 h in the incubator at 37° C. with 5% CO2. • 3. The plates were spun at 1200 rpm at 4° C. for 12 minutes, supernatant collected and used for IL17 estimation by ELISA.
(§1) Calculations: IL17 cytokine concentration in the supernatant was determined using linear regression from the standard graph and subsequently multiplied with respective dilution factors. Fold response (FR) was calculated as pg/ml of hIL17 in sample (treated) wells over pg/ml of hIL17 in Basal wells.
Percent Inhibition for each set treated with test compound was calculated by using the formula Percent Inhibition={100−(pg/mL of test compound/pg/mL of induced×100)} and IC50 values were calculated from concentration response curves by nonlinear regression analysis using GraphPad Prism software.

[2] = Compatibility with inhalation grades of lactose monohydrate; format: physicochemical; conditions: Respitose ML006, Respitose SV010, Lactohale 201, Lactohale 200, Inhalac 230, Inhalac 70
Excerpt: It was observed that compound (I) is compatible with different commercially available inhalation grades of lactose monohydrate including Respitose ML006, Respitose SV010, Lactohale 201, Lactohale 200, Inhalac 230, Inhalac 70. Lactose Monohydrate is selected as a diluent for compound (I) (micronized) with the particle size d90 of ≤5 microns.

IL-17 [3] = experiment: Ex-vivo IL-17 inhibition from peripheral blood (whole blood) from COPD patients; format: cell-based; conditions: Homo sapiens
Description: • 1. ˜8 mL whole blood was collected per patient. • 2. Human whole blood was diluted 1:1 with 0.85% NaCl. • 3. Diluted blood was loaded on a 96 well plate. Blood was pre-incubated for 60 minutes at 37° C. with serial dilutions of Compound (I). • 4. It was then transferred to 96 well plate coated with Anti-human CD3 antibody (final concentration—10 μg/mL). This was followed by the addition of Anti-human CD28 antibody (2 μg/mL). • 5. Cells were incubated for 48 h in the incubator at 37° C. with 5% CO2. The plates were spun at 1200 rpm at 4° C. for 12 minutes, supernatant collected and used for IL17 estimation by ELISA.
as §1
Percent Inhibition for each set treated with test compound was calculated by using the formula
Percent Inhibition={100−(pg/mL of test compound/pg/mL of induced×100)}
IC50 values were calculated from concentration response curves by nonlinear regression analysis using GraphPad Prism software.

[4] = Particle size distribution, Malvern Mastersizer 2000S, wet dispersion; format: physicochemical; conditions: PSD retested results
Description: The particle size distribution studies were performed using Malvern Mastersizer 2000S using wet dispersion method. A sample of about […] of compound (I) was transferred in a beaker, and 2-3 drops of nonidet P-40 and 4-5 drops of water were added to the sample in beaker, and 25-30 ml of water was added and sonicated for 180 seconds with continuous stirring, and the dispersion/solution of compound (I) was added in sample handling unit of Hydro 20000S. The particle size measurement was done using Malvern Mastersizer 2000S.

[5] = particle size data during initial development, listed as A
[6] = particle size data during initial development, listed as B
[7] = particle size data during initial development, listed as C
[8] = particle size data during intermediate development, listed as D
[9] = particle size data during intermediate development, listed as E
[10] = particle size data during intermediate development, listed as F

SMILES: CCc1ccccc1-c1nccnc1-c1ccc(NC(=O)Cc2ccc(C(F)(F)C(C)O)cc2)cc1 (stereo in doubt) [Compound (I), 2-{4-[(2S)-1,1-difluoro-2-hydroxypropyl]phenyl}-N-{4-[3-(2-ethylphenyl)pyrazine-2-yl]phenyl}acetamide]
inhibition of IL17 release (IL-17 [1]; BAL cells, at an ICmax concentration of 1-3 microns): > 70%
IC50 (IL-17 [1]; Homo sapiens): 143 nM
inhibition at 0.0001 µM (IL-17 [1]; Homo sapiens, COPD-BAL cells, 0.1 nM): 4.97%
inhibition at 0.001 µM (IL-17 [1]; Homo sapiens, COPD-BAL cells, 1 nM): 2.39%
inhibition at 0.003 µM (IL-17 [1]; Homo sapiens, COPD-BAL cells, 3 nM): 10.9%
inhibition at 0.01 µM (IL-17 [1]; Homo sapiens, COPD-BAL cells, 10 nM): 13.9%
inhibition at 0.03 µM (IL-17 [1]; Homo sapiens, COPD-BAL cells, 30 nM): 18.7%
inhibition at 0.1 µM (IL-17 [1]; Homo sapiens, COPD-BAL cells, 100 nM): 41.4%
inhibition at 0.3 µM (IL-17 [1]; Homo sapiens, COPD-BAL cells, 300 nM): 66.8%
inhibition at 1 µM (IL-17 [1]; Homo sapiens, COPD-BAL cells, 1 μM): 71.1%
inhibition at 3 µM (IL-17 [1]; Homo sapiens, COPD-BAL cells, 3 μM): 76.7%
inhibition at 6 µM (IL-17 [1]; Homo sapiens, COPD-BAL cells, 6 μM): 78.8%
inhibition at 10 µM (IL-17 [1]; Homo sapiens, COPD-BAL cells, 10 μM): 81.1%
IC50 (IL-17 [1]): 143 nM
compatibility with commercially available inhalation grades of lactose monohydrate [2]: compatible
inhibition at 0.0001 µM (IL-17 [3]; Whole Blood, 0.1 nM, read-out: IL17 A (% Inhibition)): 0.27%
inhibition at 0.001 µM (IL-17 [3]; Whole Blood, 1 nM, read-out: IL17 A (% Inhibition)): 5.57%
inhibition at 0.003 µM (IL-17 [3]; Whole Blood, 3 nM, read-out: IL17 A (% Inhibition)): 14.9%
inhibition at 0.01 µM (IL-17 [3]; Whole Blood, 10 nM, read-out: IL17 A (% Inhibition)): 15.1%
inhibition at 0.03 µM (IL-17 [3]; Whole Blood, 30 nM, read-out: IL17 A (% Inhibition)): 27.6%
inhibition at 0.1 µM (IL-17 [3]; Whole Blood, 100 nM, read-out: IL17 A (% Inhibition)): 36.8%
inhibition at 0.3 µM (IL-17 [3]; Whole Blood, 300 nM, read-out: IL17 A (% Inhibition)): 43.4%
inhibition at 1 µM (IL-17 [3]; Whole Blood, 1 uM, read-out: IL17 A (% Inhibition)): 56.9%
inhibition at 3 µM (IL-17 [3]; Whole Blood, 3 μM, read-out: IL17 A (% Inhibition)): 65%
inhibition at 6 µM (IL-17 [3]; Whole Blood, 6 μM, read-out: IL17 A (% Inhibition)): 69.2%
inhibition at 10 µM (IL-17 [3]; Whole Blood, 10 μM, read-out: IL17 A (% Inhibition)): 76.2%
inhibition at 20 µM (IL-17 [3]; Whole Blood, 20 μM, read-out: IL17 A (% Inhibition)): 78.8%
IC50 (IL-17 [3]; stimulated whole blood from COPD patients, read-out: IC50, IL17 release): 282 nM

SMILES: CCc1ccccc1-c1nccnc1-c1ccc(NC(=O)Cc2ccc(C(F)(F)[C@@H](C)O)cc2)cc1 [API Batch A]
d10 [4, 5]: 1.222 μm
d50 [4, 5]: 2.064 μm
d90 [4, 5]: 3.664 μm

SMILES: CCc1ccccc1-c1nccnc1-c1ccc(NC(=O)Cc2ccc(C(F)(F)[C@@H](C)O)cc2)cc1 [API Batch B]
d10 [4, 6]: 0.106 μm
d50 [4, 6]: 1.376 μm
d90 [4, 6]: 3.278 μm

Results, then the molecule that gave them:

d10 [4, 7]: 1.128 μm
d50 [4, 7]: 2.010 μm
d90 [4, 7]: 3.783 μm
SMILES: CCc1ccccc1-c1nccnc1-c1ccc(NC(=O)Cc2ccc(C(F)(F)[C@@H](C)O)cc2)cc1 [API Batch C]

d10 [4, 8]: 0.110 microns
d50 [4, 8]: 1.510 microns
d90 [4, 8]: 3.638 microns
SMILES: CCc1ccccc1-c1nccnc1-c1ccc(NC(=O)Cc2ccc(C(F)(F)[C@@H](C)O)cc2)cc1 [API Batch D]

d10 [4, 9]: 1.376 microns
d50 [4, 9]: 2.591 microns
d90 [4, 9]: 5.060 microns
SMILES: CCc1ccccc1-c1nccnc1-c1ccc(NC(=O)Cc2ccc(C(F)(F)[C@@H](C)O)cc2)cc1 [API Batch E]

d10 [4, 10]: 1.244 microns
d50 [4, 10]: 2.383 microns
d90 [4, 10]: 4.752 microns
SMILES: CCc1ccccc1-c1nccnc1-c1ccc(NC(=O)Cc2ccc(C(F)(F)[C@@H](C)O)cc2)cc1 [API Batch F]
